Among the data in DBAASP are MIC values, retold here.

Molecules are shown by their SMILES. Values after ≈ are worked out from the molar mass of the structure shown.

What all share (assay): ≥ marks a high value that may be exact or a test limit, other limits are often not marked, values filed in µg/mL are converted to µM
One assay relates to Escherichia coli.
For assay [1], the system named is Pseudomonas aeruginosa ATCC 27853.
For assay [2], the system named is Staphylococcus aureus ATCC 25923.
The subject of assay [3] is Escherichia coli ATCC 25922.
The next assay has as its system Staphylococcus aureus.

For orientation: MIC means the least concentration at which growth counts as inhibited.

The compound `CC[C@H](C)[C@H](NC(=O)[C@@H](N)C(C)C)C(=O)N[C@@H](C)C(=O)N[C@@H](Cc1ccccc1)C(=O)N[C@@H](C)C(=O)N[C@@H](CCCCN)C(=O)N[C@H](C(=O)N[C@@H](CCCCN)C(=O)N[C@@H](CCC(=O)O)C(=O)N[C@@H](C)C(=O)N[C@@H](CCCCN)C(=O)N[C@@H](C)C(=O)N[C@@H](CCCCN)C(=O)N[C@@H](CC(C)C)C(=O)N[C@@H](CCCCN)C(=O)NCC(=O)N[C@@H](CCC(N)=O)C(=O)N[C@@H](C)C(=O)N[C@@H](CCCCN)C(=O)NCC(=O)O)[C@@H](C)O` [VIAFAKTKEAKAKLKGQAKG] returned an MIC in the assay with Escherichia coli of more than 123 µM.
Take `CC(C)[C@H](NC(=O)[C@H](Cc1ccc(O)cc1)NC(=O)[C@H](CO)NC(=O)[C@H](CCCCN)NC(=O)[C@@H](N)Cc1c[nH]c2ccccc12)C(=O)N[C@@H](CCCN=C(N)N)C(=O)N[C@@H](CCCN=C(N)N)C(=O)N[C@@H](Cc1c[nH]c2ccccc12)C(N)=O` [WKSYVRRW]: the MIC in assay [1] is more than 100 µM; in assay [2], 100 µM (≈ 118 µg/mL); in assay [3], 64 µM (≈ 75.5 µg/mL).
For `CC[C@H](C)[C@H](NC(=O)[C@H](CCCCN)NC(=O)[C@H](CC(C)C)NC(=O)[C@H](C)NC(=O)[C@H](C)NC(=O)[C@H](CCCCN)NC(=O)[C@H](CC(C)C)NC(=O)[C@H](C)NC(=O)[C@H](CCCCN)NC(=O)CNC(=O)[C@H](CC(C)C)NC(=O)[C@H](Cc1ccccc1)NC(=O)[C@H](CO)NC(=O)CNC(=O)[C@H](Cc1ccccc1)NC(=O)CN)C(=O)NCC(=O)N[C@@H](C)C(=O)N[C@@H](CC(N)=O)C(=O)N[C@H](C(=O)N[C@@H](CC(C)C)C(=O)NCC(=O)NCC(=O)N[C@@H](C)C(=O)N1CCC[C@H]1C(=O)N[C@@H](CCC(=O)O)C(=O)N[C@@H](CCC(N)=O)C(=O)O)C(C)C` [GFGSFLGKALKAALKIGANVLGGAPEQ], the MIC was 25 µM (≈ 65.4 µg/mL) in the assay with Escherichia coli and 6 µM (≈ 15.7 µg/mL) in the assay with Staphylococcus aureus.
As for `CC(C)C[C@H](NC(=O)[C@H](Cc1ccc(O)cc1)NC(=O)[C@@H]1CCCN1C(=O)[C@H](Cc1c[nH]c2ccccc12)NC(=O)[C@H](Cc1c[nH]c2ccccc12)NC(=O)[C@H](Cc1c[nH]c2ccccc12)NC(=O)[C@@H]1CCCN1C(=O)[C@H](Cc1ccc(O)cc1)NC(=O)[C@H](CCCN=C(N)N)NC(=O)[C@H](CCCN=C(N)N)NC(=O)[C@@H](N)C(C)C)C(=O)N[C@@H](CCCN=C(N)N)C(=O)N[C@@H](CCCN=C(N)N)C(N)=O` [VRRYPWWWPYLRR], the MIC against Escherichia coli stood at 10.3 µM (≈ 20 µg/mL); against Staphylococcus aureus, 2.58 µM (≈ 5 µg/mL).
For `CC[C@H](C)[C@H](N)C(=O)N[C@H](C(=O)N[C@@H](CO)C(=O)N[C@H](C(=O)N[C@H](C(=O)NCC(=O)N[C@@H](CCCCN)C(=O)N[C@@H](CC(C)C)C(=O)N[C@H](C(=O)N[C@@H](CCCCN)C(=O)N[C@@H](Cc1c[nH]c2ccccc12)C(=O)N[C@H](C(=O)N[C@H](C(=O)N[C@@H](CCCCN)C(=O)N[C@H](C(=O)N[C@H](C(=O)N[C@@H](CC(N)=O)C(=O)N[C@@H](CCCCN)C(=O)N[C@@H](Cc1ccccc1)C(=O)N[C@H](C(=O)N[C@@H](CCCCN)C(=O)N[C@@H](CCCCN)C(=O)O)[C@@H](C)O)C(C)C)[C@@H](C)O)[C@@H](C)CC)[C@@H](C)CC)C(C)C)[C@@H](C)CC)[C@@H](C)O)[C@@H](C)CC` [IISTIGKLVKWIIKTVNKFTKK] the same measures were 2.7 µM (≈ 6.91 µg/mL) and 4.7 µM (≈ 12 µg/mL).
For `CC[C@H](C)[C@H](NC(=O)CN)C(=O)NCC(=O)N[C@@H](CO)C(=O)N[C@@H](C)C(=O)N[C@@H](CC(C)C)C(=O)N[C@@H](C)C(=O)N[C@@H](CCCCN)C(=O)N[C@@H](C)C(=O)N[C@@H](C)C(=O)N[C@@H](CCCCN)C(=O)N[C@@H](CC(C)C)C(=O)N[C@H](C(=O)N[C@@H](C)C(=O)NCC(=O)N[C@H](C(=O)N[C@H](C(N)=O)C(C)C)[C@@H](C)CC)C(C)C` [GIGSALAKAAKLVAGIV], in that order: 50 µM (≈ 76.9 µg/mL) and 12.5 µM (≈ 19.2 µg/mL).
Consider `CC(C)[C@H](NC(=O)[C@H](Cc1ccc(O)cc1)NC(=O)[C@H](CO)NC(=O)[C@H](CCCCN)NC(=O)[C@@H](N)CCCCN)C(=O)N[C@@H](CCCN=C(N)N)C(=O)N[C@@H](CCCN=C(N)N)C(=O)N[C@@H](Cc1c[nH]c2ccccc12)C(=O)N[C@@H](CCCN=C(N)N)C(=O)N[C@@H](CO)C(N)=O` [KKSYVRRWRS], for which the MIC in assay [1], in assay [2] and in assay [3] was more than 100 µM in each case.
